Results taken from patent US20020002171A1, “Materials and methods for killing nematodes and nematode eggs” (priority 2000, published 2002).

System: Caenorhabditis elegans
Assay: C. elegans L1 nematicidal dose response in 96-well plates, 5 day visual score (Example 2; same procedure for Example 7, Table 3)
Format: in vivo
Parameters: key to 5 Day Visual Score V1 / 5 Day Visual Score V2 / 5 Day Visual Score V3 / 5 Day Visual Score V4 / 5 Day Visual Score V6 / 5 Day Visual Score V5 / Initial HTS Run Visual Score / Follow-up HTS Run Visual Score: Dead: only stiff L1s (no movement); Dead (L4): worms are dead, but at a later larval stage; majority of worms are L1 (based on size) worms move when plate is tapped; majority of worms are L2 (based on size); majority of worms are L3 (based on size); majority of worms are L4 (based on size); AD: majority of worms are adult; #AD: 5 adult worms or less; B!: sterile (0-25 progeny); B: low broodsize (25-100 progeny); ˜B: moderate broodsize (100-250 progeny); <: reduced broodsize (250-500 progeny); OK: no effect (˜1000+ progeny)
Conditions: for 5 Day Visual Score V2: dilution V2, day 5; for 5 Day Visual Score V3: dilution V3, day 5; for 5 Day Visual Score V4: dilution V4, day 5; for 5 Day Visual Score V5: dilution V5, day 5; for 5 Day Visual Score V6: dilution V6, day 5
Procedure, shortened: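 L1 larvae, 20 per well in NGM with 1% E. coli HB101 and antibiotic/antimycotic, exposed to six 3-fold dilutions from 70 μM down to 0.3 μM (1.4% DMSO at top). Held at 20° C; viability scored visually under 100× dissecting microscope on day 5.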

Row | Compound | Follow-up HTS Run % Run [%] | Follow-up HTS Run mOD [mOD] | Initial HTS Run % Run [%] | Initial HTS Run Visual Score | Initial HTS Run mOD [mOD] | 5 Day Visual Score V2 (dose response) | 5 Day Visual Score V3 (dose response) | 5 Day Visual Score V4 (dose response) | 5 Day Visual Score V5 (dose response) | 5 Day Visual Score V6 (dose response) | Follow-up HTS Run Visual Score | 5 Day Visual Score V1 (dose response, dilution V1, day 5)
1 | C=CCN(CC=C)c1nc(NCCC(c2ccccc2)c2ccccc2)ns1 [compound 289] | 86 | 139 | 104 | L4/AD/B | 114 | ˜B (moderate broodsize (100-250 progeny)) | OK (no effect (˜1000+ progeny)) | OK (no effect (˜1000+ progeny)) | OK (no effect (˜1000+ progeny)) | OK (no effect (˜1000+ progeny)) |  | 
2 | CCN(c1nc(NCc2ccc(C(F)(F)F)cc2)ns1)C1CCCCC1 [compound 305] | 112 | 181 | 102 |  | 112 | < (reduced broodsize (250-500 progeny)) | OK (no effect (˜1000+ progeny)) | OK (no effect (˜1000+ progeny)) | OK (no effect (˜1000+ progeny)) | OK (no effect (˜1000+ progeny)) | L4 | 
3 | C=CCN(CC=C)c1nc(NCc2ccc(F)cc2F)ns1 [compound 293] | 125 | 201 | 108 | L4 | 119 | < (reduced broodsize (250-500 progeny)) | OK (no effect (˜1000+ progeny)) | OK (no effect (˜1000+ progeny)) | OK (no effect (˜1000+ progeny)) | OK (no effect (˜1000+ progeny)) | L4/AD/B! | 
4 | CCN(Cc1ccccc1)c1nc(NCc2ccc(F)cc2F)ns1 [compound 292] | 116 | 187 | 110 |  | 121 | ˜B (moderate broodsize (100-250 progeny)) | OK (no effect (˜1000+ progeny)) | OK (no effect (˜1000+ progeny)) | OK (no effect (˜1000+ progeny)) | OK (no effect (˜1000+ progeny)) | L4/AD/B! | 
5 | Cc1cccc(C)c1N1CCN(c2nsc(N3CCC(O)CC3)n2)CC1 [compound 218] | 78 | 125 | 91 | 1AD/B! | 100 | Dead |  | OK (no effect (˜1000+ progeny)) | OK (no effect (˜1000+ progeny)) | OK (no effect (˜1000+ progeny)) | Dead | Dead
